Data set [1] relates to HIV-1 IIIB isolate. Nature of the data set: HIV-1 p24 antigen capture ELISA, acutely infected 174XCEM cells. In kind it is cell-based. As to conditions: for anti-HIV-1 activity compared with other betulinol derivatives: 1 μg/ml, p24 OD, FIG. 1. From the text:
The assay methods described herein are known in the art, and are described in detail, for example, in Crombie et al., J. Exp. Med. 187:25-35 (1998), which is hereby incorporated by reference in its entirety.
Cultures were maintained in culture medium (RPMI-1640+10% fetal bovine serum (“FBS”)) for 4 days, the culture supernatants were then collected, lysed with Triton®-X 100 surfactant, and HIV-1 gag (p24) antigen activity assessed by a standard technique, the Antigen Capture ELISA (enzyme-linked immunosorbent assay) (Roche-NEN).
Data are presented in optical density (“OD”) units, which are linear with ng/ml of p24 Ag from 0.15 to 1.5 OD, and can be converted to pg/ml of HIV-1 antigen using a standard curve.
A general note: In an ELISA, binding on a coated surface is turned into a signal by an enzyme label.

Data set [2] has as its system 174XCEM cells. Nature of the data set: Cell viability by trypan blue dye exclusion. As to conditions: for effect on total cell number or cell viability: trypan blue dye exclusion at four days and seven days. Here is the method: Human T-B hybridoma cell line 174XCEM was exposed to a low multiplicity of infection (“MOI”) (MOI=1.0) of stock HIV-1 IIIB isolate for 2 hours at 37° C., washed ×3 with phosphate buffered saline (“PBS”), then plated at 250,000 cells/well in the presence of various agents, shown in Table 2. Dimethyl sulfoxide (“DMSO”) buffer was used as a “no virus” control. A commercially available synthetic peptide, thrombospondin peptide (“TSP”), known as having HIV-1 inhibitory activity, was used as an “inhibitory activity” control. Two HIV isolates were used, a patient isolate (“child HIV”), and the standard CXCR4 co-receptor utilizing isolate IIIB.
The cell samples were assessed by trypan blue dye exclusion at four days and seven days.

The test system of data set [3] is another HIV-1 isolate. Nature of the data set: Effect on 174XCEM cells chronically infected with another HIV-1 isolate. In kind it is cell-based. Here is the method: Agents were also evaluated for an effect on 174XCEM cells chronically infected with another HIV-1 isolate.
Data set [4] concerns carcinoma cell line CO-115 of the large intestine. Conditions: CO-115 cells; cited from earlier work.
For data set [5] the following is noted: Hashimoto et al. 1997; cited from earlier work.
Where [6] appears, read: varying doses up to 2 μg/ml, FIG. 3-5.
Where [7] appears, read: 174XCEM cells, HIV-1 IIIB, agents 1 μg/ml, p24 at 4 days, FIG. 2.
Setting [8] is: chronically infected 174XCEM cells, single dose 1 μg/ml.

These results are taken from patent publication US20060019934A1, “Anti-HIV-1 activity of betulinol derivatives” (priority 2004, published 2006).

Read-outs that look alike come from different tables or passages of the source.

For the compound `C=C(C)[C@@H]1CC[C@]2(CO)CC[C@]3(C)[C@H](CC[C@@H]4[C@@]5(C)CC[C@H](OC(C)=O)C(C)(C)[C@@H]5CC[C@]43C)[C@@H]12` [3-acetoxy betulin], the “anti-HIV-1 activity compared with other betulinol derivatives” value in data set [1] is “superior”. The “effect on total cell number or cell viability” value in data set [2] was “no effect”.
In the case of `C=C(C)[C@@H]1CC[C@]2(COC(C)=O)CC[C@]3(C)[C@H](CC[C@@H]4[C@@]5(C)CC[C@H](O)C(C)(C)[C@@H]5CC[C@]43C)[C@@H]12` [28-acetoxy betulin], in data set [1], the “anti-HIV-1 activity compared with other betulinol derivatives” value is reported as “superior”. Besides, in data set [1] (setting [6]), the “dose-related anti-HIV effect” value is on record as “comparable anti-HIV-1 activity”. Also, the “effect on total cell number or cell viability” value in data set [2] is “no effect”.
Regarding `C=C(C)[C@@H]1CC[C@]2(COC(C)=O)CC[C@]3(C)[C@H](CC[C@@H]4[C@@]5(C)CC[C@H](OC(C)=O)C(C)(C)[C@@H]5CC[C@]43C)[C@@H]12` [betulin diacetate], in data set [1], the “dose-related anti-HIV effect” value is given as “Progressive increases in anti-HIV effect” and the “inhibition (anti-HIV-1 effect)” value worked out at 57%. Besides, the cell toxicity entry in data set [2] (doses of 0.5, 1.5, and 2 μg/ml) is given as “without cell toxicity”. The “inhibition in chronically infected cells” value in data set [3] is 20%.
For `C=C(C)[C@@H]1CC[C@]2(C(=O)O)CC[C@]3(C)[C@H](CC[C@@H]4[C@@]5(C)CC[C@H](O)C(C)(C)[C@@H]5CC[C@]43C)[C@@H]12` [betulinic acid], in data set [4], the “LD 50” value was 0.375 mg/mL.
For `C=C(C)C1CCC2(CO)CC[C@]3(C)[C@H](CC[C@@H]4[C@@]5(C)CCC(O)C(C)(C)[C@@H]5CC[C@]43C)C12` (stereo partly drawn) [betulinol, lup-20(29)-ene-3β, 28-diol], in data set [1] (setting [7]), the “inhibition (anti-HIV-1 effect)” value is listed as “no effect”. Moreover, the “dose-related anti-HIV effect” value in data set [1] (setting [6]) is “increasing anti-HIV effect”. In data set [3] (setting [8]), the “inhibition in chronically infected cells” value is reported as “minimal effect”.
With `C=C(C)C1CCC2(C=O)CC[C@]3(C)[C@H](CC[C@@H]4[C@@]5(C)CCC(=O)C(C)(C)[C@@H]5CC[C@]43C)C12` (stereo partly shown) [betulone aldehyde], the “inhibition (anti-HIV-1 effect)” value in data set [1] (setting [7]) worked out at 37%. The “dose-related anti-HIV effect” value in data set [1] (setting [6]) was “Progressive increases in anti-HIV effect”. For the same compound, in data set [3] (setting [8]), the “inhibition in chronically infected cells” value is given as “minimal effect”.
For `C=C(C)[C@@H]1CC[C@]2(C(=O)O)CC[C@]3(C)[C@H](CC[C@@H]4[C@@]5(C)CCC(=O)C(C)(C)[C@@H]5CC[C@]43C)[C@@H]12` [betulonic acid], the “cytotoxicity, interfering with the proliferation of cells” value in data set [5] is recorded as “cytotoxic”.
betulin dimethyl ether: in data set [1], the “anti-HIV-1 activity compared with other betulinol derivatives” value is given as “superior”. In data set [2], the “effect on total cell number or cell viability” value is on record as “no effect”.
